In the experiment the test system is primary rat mixed cortical cells. As to the kind of experiment: In vitro myelination assay (MBP positive myelin strands, fold myelin pixels above background). In kind it is cell-based. Particulars: Rattus norvegicus; for fold induction at 1 µM: 1.0 μM compound; for fold induction at 10 µM: 10.0 μM compound. The method, boiled down:
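Mixed cortical culture, P1 rat, 87,500-95,000 cells/well; compound present from seeding, refreshed days 6 and 10; 14 d, 37 °C, 5% CO2. Day 14: PFA fix, anti-MBP + Hoechst. Read-out: fold MBP myelin pixels over untreated, tested at 1.0 and 10.0 μM.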

Where [1] appears, read: relative to baseline of no added compound, read-out: Fold myelin pixels above background.
Where [2] appears, read: read-out: Fold myelin pixels above background relative to baseline of no added compound.

Read-outs that look alike come from different tables or passages of the source. Some results are limits rather than exact numbers.

As to `Cc1ccc(-n2cnc(Nc3cc(F)cc(N4CCN(C5COC5)CC4)c3)n2)cc1F` [Compound 779, 1-(3-fluoro-4-methyl-phenyl)-N-[3-fluoro-5-[4-(oxetan-3-yl)piperazin-1-yl]phenyl]-1,2,4-triazol-3-amine], under setting [1], the fold induction at 1 µM was 1 to 10 and the fold induction at 10 µM was 1 to 10.
As to `Cc1cc(Nc2ncn(-c3ccc(F)c(C)c3)n2)cc(N2CCN(C3COC3)CC2)c1` [Compound 780, 1-(4-fluoro-3-methyl-phenyl)-N-[3-methyl-5-[4-(oxetan-3-yl)piperazin-1-yl]phenyl]-1,2,4-triazol-3-amine], under setting [1], the fold induction at 1 µM was 1 to 10 and the fold induction at 10 µM was 1 to 10.
`COc1ccc(-n2cnc(Nc3cc(F)cc(N4CCN(C5COC5)CC4)c3)n2)cc1F` [Compound 781, 1-(3-fluoro-4-methoxy-phenyl)-N-[3-fluoro-5-[4-(oxetan-3-yl)piperazin-1-yl]phenyl]-1,2,4-triazol-3-amine]: under setting [1], the fold induction at 1 µM lay within 1 to 10 and the fold induction at 10 µM was no more than 1.
In the same order, the values of `COc1c(F)cc(-n2cnc(Nc3cc(C)cc(N4CC(N5CCOCC5)C4)c3)n2)cc1F` [Compound 782, 1-(3,5-difluoro-4-methoxy-phenyl)-N-[3-methyl-5-(3-morpholinoazetidin-1-yl)phenyl]-1,2,4-triazol-3-amine] are 10 to 100 and 1 to 10.
For the compound `Fc1cc(Nc2ncn(-c3ccnc(F)c3)n2)cc(N2CCN(C3COC3)CC2)c1` [Compound 783, N-[3-fluoro-5-[4-(oxetan-3-yl)piperazin-1-yl]phenyl]-1-(2-fluoro-4-pyridyl)-1,2,4-triazol-3-amine], under setting [1], the fold induction at 1 µM was no more than 1 and the fold induction at 10 µM was in the range of 1 to 10.
Taken in the same sequence, the figures for `Fc1ccc(-n2cnc(Nc3cc(Cl)cc(N4CC(N5CCOCC5)C4)c3)n2)cc1F` [Compound 784, N-[3-chloro-5-(3-morpholinoazetidin-1-yl)phenyl]-1-(3,4-difluorophenyl)-1,2,4-triazol-3-amine] were 10 to 100 and 10 to 100.
Taken in the same sequence, the figures for `Clc1cc(Nc2ncn(-c3ccccn3)n2)cc(N2CC(N3CCOCC3)C2)c1` [Compound 785, N-[3-chloro-5-(3-morpholinoazetidin-1-yl)phenyl]-1-(2-pyridyl)-1,2,4-triazol-3-amine] were 10 to 100 and 100 to 1000.
Consider `COCC1CCCN(c2cc(C)cc(Nc3ncn(-c4cc(F)cc(F)c4)n3)n2)C1` (stereo not drawn) [Compound 786, N-[1-(3,5-difluorophenyl)-1,2,4-triazol-3-yl]-6-[3-(methoxymethyl)-1-piperidyl]-4-methyl-pyridin-2-amine], for which, under setting [1], the fold induction at 1 µM lay in the range of 1 to 10 and the fold induction at 10 µM was no more than 1.
Consider `Cc1cc(Nc2ncn(-c3cc(F)cc(F)c3)n2)cc(N2CC(N3CC4CC3CO4)C2)c1` (stereo not drawn) [Compound 788, 1-(3,5-difluorophenyl)-N-[3-methyl-5-[3-(2-oxa-5-azabicyclo[2.2.1]heptan-5-yl)azetidin-1-yl]phenyl]-1,2,4-triazol-3-amine], for which, under setting [2], the fold induction at 1 µM fell in the range of 10 to 100 and the fold induction at 10 µM lay within 1 to 10.
In the same order, the values of `CNC(=O)c1cc(Nc2ncn(-c3ccc(F)c(F)c3)n2)nc(N2CCN(C3COC3)CC2)c1` [Compound 789, 2-[[1-(3,4-difluorophenyl)-1,2,4-triazol-3-yl]amino]-N-methyl-6-[4-(oxetan-3-yl)piperazin-1-yl]pyridine-4-carboxamide] are 1 to 10 and no more than 1.
Taken in the same sequence, the figures for `Cc1cc(Nc2ncn(-c3cc(F)cc(F)c3)n2)c(F)c(N2CC(N3CCOCC3)C2)c1` [Compound 790, 1-(3,5-difluorophenyl)-N-[2-fluoro-5-methyl-3-(3-morpholinoazetidin-1-yl)phenyl]-1,2,4-triazol-3-amine] were 10 to 100 and 10 to 100.
Regarding `Cc1cc(Nc2ncn(-c3cc(F)cc(F)c3)n2)cc(N2CC(NCCO)C2)c1` [Compound 791, 2-[[1-[3-[[1-(3,5-difluorophenyl)-1,2,4-triazol-3-yl]amino]-5-methyl-phenyl]azetidin-3-yl]amino]ethanol], under setting [2], the fold induction at 1 µM fell in the range of 10 to 100 and the fold induction at 10 µM was no more than 1.
Turning to `N#Cc1cc(Nc2ncn(-c3cccc(F)c3)n2)cc(N2CCN(C3COC3)CC2)c1` [Compound 793, 3-[[1-(3-fluorophenyl)-1,2,4-triazol-3-yl]amino]-5-[4-(oxetan-3-yl)piperazin-1-yl]benzonitrile], under setting [2], the fold induction at 1 µM lay in the range of 1 to 10 and the fold induction at 10 µM was no more than 1.
In the same order, the values of `Fc1cc(Nc2ncn(-c3cccc(C(F)F)c3)n2)cc(N2CCN(C3COC3)CC2)c1` [Compound 794, 1-[3-(difluoromethyl)phenyl]-N-[3-fluoro-5-[4-(oxetan-3-yl)piperazin-1-yl]phenyl]-1,2,4-triazol-3-amine] are 1 to 10 and no more than 1.
Taken in the same sequence, the figures for `COCC1CCN(c2cc(C(F)F)cc(Nc3ncn(-c4cccc(C(F)(F)F)c4)n3)n2)CC1` [Compound 795, 4-(difluoromethyl)-6-[4-(methoxymethyl)-1-piperidyl]-N-[1-[3-(trifluoromethyl)phenyl]-1,2,4-triazol-3-yl]pyridin-2-amine] were 1 to 10 and 1 to 10.
Taken in the same sequence, the figures for `Cc1cc(Nc2ncn(-c3cc(F)cc(F)c3)n2)cc(NC2CC(N3CCOCC3)C2)c1` (stereo not drawn) [Compound 797, N3-[1-(3,5-difluorophenyl)-1,2,4-triazol-3-yl]-5-methyl-N1-(3-morpholinocyclobutyl)benzene-1,3-diamine] were 1 to 10 and no more than 1.
For `Cc1cc(C#CC2CC2)cc(Nc2ncn(-c3cc(F)cc(F)c3)n2)c1` [Compound 798, N-[3-(2-cyclopropylethynyl)-5-methyl-phenyl]-1-(3,5-difluorophenyl)-1,2,4-triazol-3-amine], under setting [2], the fold induction at 1 µM was 1 to 10 and the fold induction at 10 µM was in the range of 1 to 10.
On to `Cc1cc(Nc2ncn(-c3ccc(F)c(F)c3)n2)cc(NC2CC(N3CCOCC3)C2)c1` (stereo not drawn) [Compound 799, N3-[1-(3,4-difluorophenyl)-1,2,4-triazol-3-yl]-5-methyl-N1-(3-morpholinocyclobutyl)benzene-1,3-diamine], for which, under setting [2], the fold induction at 1 µM lay in the range of 10 to 100 and the fold induction at 10 µM is no more than 1.
Taken in the same sequence, the figures for `Cc1cc(Nc2ncn(-c3cc(F)cc(F)c3)n2)nc(C2CCN(C3COC3)CC2)c1` [Compound 801, N-[1-(3,5-difluorophenyl)-1,2,4-triazol-3-yl]-4-methyl-6-[1-(oxetan-3-yl)-4-piperidyl]pyridin-2-amine] were 1 to 10 and 1 to 10.
Taken in the same sequence, the figures for `CCc1cc(Nc2ncn(-c3ccc(F)cc3)n2)cc(N2CCN(C3(C)COC3)CC2)c1` [Compound 802, N-[3-ethyl-5-[4-(3-methyloxetan-3-yl)piperazin-1-yl]phenyl]-1-(4-fluorophenyl)-1,2,4-triazol-3-amine] were 10 to 100 and no more than 1.
In the same order, the values of `Fc1cc(Nc2ncn(-c3ccc(F)c(F)c3)n2)cc(N2CCN(C3COC3)CC2)c1` [Compound 803, 1-(3,4-difluorophenyl)-N-[3-fluoro-5-[4-(oxetan-3-yl)piperazin-1-yl]phenyl]-1,2,4-triazol-3-amine] are 10 to 100 and no more than 1.
For `Fc1cc(F)cc(-n2cnc(Nc3cc(C(F)F)cc(N4CC(N5CCOCC5)C4)c3)n2)c1` [Compound 804, N-[3-(difluoromethyl)-5-(3-morpholinoazetidin-1-yl)phenyl]-1-(3,5-difluorophenyl)-1,2,4-triazol-3-amine], under setting [2], the fold induction at 1 µM was in the range of 10 to 100 and the fold induction at 10 µM is no more than 1.
In the same order, the values of `CC(=O)N1CCC(Oc2cc(C)cc(Nc3ncn(-c4cc(F)cc(F)c4)n3)c2)CC1` [Compound 805, 1-[4-[3-[[1-(3,5-difluorophenyl)-1,2,4-triazol-3-yl]amino]-5-methyl-phenoxy]-1-piperidyl]ethanone] are 10 to 100 and 1 to 10.
Taken in the same sequence, the figures for `Fc1ccc(-n2cnc(Nc3cc(C(F)F)cc(N4CCN(C5COC5)CC4)n3)n2)cc1` [Compound 806, 4-(difluoromethyl)-N-[1-(4-fluorophenyl)-1,2,4-triazol-3-yl]-6-[4-(oxetan-3-yl)piperazin-1-yl]pyridin-2-amine] were 1 to 10 and no more than 1.
Taken in the same sequence, the figures for `COCC1CCN(c2cc(C(F)(F)F)cc(Nc3ncn(-c4cccc(C(F)F)c4)n3)n2)CC1` [Compound 807, N-[1-[3-(difluoromethyl)phenyl]-1,2,4-triazol-3-yl]-6-[4-(methoxymethyl)-1-piperidyl]-4-(trifluoromethyl)pyridin-2-amine] were 1 to 10 and 1 to 10.
As for `Cc1cc(Nc2ncn(-c3cc(F)cc(F)c3)n2)cc(N2CC(N3CCCOCC3)C2)c1` [Compound 808, 1-(3,5-difluorophenyl)-N-[3-methyl-5-[3-(1,4-oxazepan-4-yl)azetidin-1-yl]phenyl]-1,2,4-triazol-3-amine], under setting [2], the fold induction at 1 µM was 10 to 100 and the fold induction at 10 µM is no more than 1.
In the same order, the values of `Cc1cc(Nc2ncn(-c3cc(F)cc(F)c3)n2)cc(N2CCN(CCN(C)C)CC2)c1` [Compound 809, 1-(3,5-difluorophenyl)-N-[3-[4-[2-(dimethylamino)ethyl]piperazin-1-yl]-5-methyl-phenyl]-1,2,4-triazol-3-amine] are 1 to 10 and no more than 1.
